This is an account of results in patent publication US11266710B2, “Angio-3 for treatment of retinal angiogenic diseases” (SINGAPORE HEALTH SERVICES PTE LTD, priority 2017, dated 2022).

Experiment [1] concerns laser-induced CNV in C57/BL6J (B6J) wild type mice. The experiment can be described thus: Laser-induced choroidal neovascularization (CNV) model in mice, area of leakage by FFA. Format: in vivo. The following applies: for Area of Leakage (mean) Week 1 / Area of Leakage (mean) Week 4: laser-induced CNV mice; for % Reduction (area of leakage): vehicle control = 0%. How it is done:
FIG. 3A is a schematic of the experimental design on the efficacy of Angio-3 in a laser-induced choroidal neovascularization (CNV) model in mice (B6J WT mice). FIG. 3B are FFA images of baseline and at different time points post treatment. IV single injection of 100 μL of Angio-3 (25 mg/Kg Bwt) was given at Day 0 (prevention mode) and 4 days after laser (regression mode) and followed for 10 weeks. FIG. 3C is a graph showing the area of leakage by each eye for various groups. FIG. 3D are graphs of the mean area of leakage of all batches for each group. […] The attenuation retinal vascularization was better than scrambled peptide. n=6 eyes per batch; n=3 batches. Values are expressed as means±s.e.m., **P<0.01, *P<0.05, student's t-test. FIG. 3E is a graph of the result of the Retinal Function Test that measures ERG changes in Angio-3 treated and control.
FIG. 4A is a schematic of the experimental design on the efficacy of Angio-3 by IVT administration. […]
FIG. 11 A are FFA images of baseline and at different time points post treatment. Mice received single IVT injection of Angio-3 (at a dose of 1 μg in 1 μl or 100 ng in 1 μl), and chemically modified Angio-3 peptides Pep-N (at doses of 5 μg in μl; 1 μg in μl; and 100 ng in 1 μl, respectively) and Pep-Q peptides (at doses of 5 μg in μl; 1 μg in μl; and 100 ng in 1 μl, respectively). FIG. 11 B is a graph of the area of leakage by each eye. Single dose attenuates retinal angiogenesis in laser-induced mice CNV model via IVT route till 4 weeks. […] Eylea is the positive control. n=18 eyes per group; Values are expressed as means±s.e.m. n=3 independent experiment, **P<0.01, *P<0.05, student's t-test.
Laser induced choridal neo-vascularization (CNV) in C57/BL6J (B6J) wild type mice (n=90).
In B6J mice, single injection of 100 μl volume at 25 mg/kg Bwt concentration Angio-3 was injected via intravenous (i/v) route and this was tested in both Preventive mode (before laser) and Regression mode (4 days after laser). […]
Angio-3 was also injected via intravitreal (IVT) route, single injection of 1 μl volume at 2 different doses; 1 μg (High dose) and 100 ng (Low dose).
4 laser photocoagulation sites were placed concentrically around the optic disc of both eyes to induce CNVs. A diode laser (810 nm) was used with a relative potency scale of 120 mW for mice and 250 mW for rats, an exposure time of 0.05 s, and a spot size of […]. Laser spots were focused with crystal covers to avoid laser beam dispersion. Bubble formation was confirmed the rupture of Bruch's membrane.
Fundus photography and fundus fluorescein angiography (FFA) was imaged using a MICRON IV fundus camera (Phoenix Laboratories USA). For FFA, animals were intraperitoneally injected with 10% sodium fluorescein at a dose of 0.01 ml per 5-6 gm body weight.
In B6J mice, single intravitreous (IVT) injection of 100 ng, 1 μg, 5 μg PEP-Q, PEP-N (modified Angio-3), Angio-3 and Eylea were executed and this was tested in Prevention mode (before laser) Method of Llser induced CNV model and injection was described as above.

Experiment [2] has as its system laser-induced CNV in Cynomolgus monkeys. The experiment can be described thus: Laser-induced CNV model in Cynomolgus monkeys (wet AMD model). The following applies: 2 mg Angio-3, 2 mg and 4 mg PeptideQ, 2 mg Eylea, single IVT. Format: in vivo, Cynomolgus monkey. How it is done: FIGS. 25A, 25B, 25C, 25D, 25E, and 25F show the results of testing in a laser-induced chorodial neovascularization (CNV) model in Cynomolgus moneys developed as an experimental model of wet AMD. FIG. 25A is a schematic of the study design. FIG. 25B are representative fundus fluorescein angiography (FFA) images of all groups. FIG. 25C is a graph showing change in mean lesion grade of the eye in monkeys treated with a single dose 2 mg of Angio-3, dose 2 mg of anti-VEGF (Eylea), 2 mg of peptide (Q2) and 4 mg of peptide (Q4) and control. […] FIG. 25E is a graph of laser area quantified from the FFA images by ImageJ software. FIG. 25F are graphs of laser volume quantified from PS-OCT images by ImageJ software.
A laser-induced choroidal neovascularization (CNV) model was developed and validated in Cynomolgus monkeys as experimental model of wet AMD. […] The development of active CNV was assessed by fluorescein angiography, at Day 14 the baseline degree of neovascularization and leakiness were measured and the final fluorescein angiography assessment was performed on Day 28. Leakage area was quantified by ImageJ software. The laser volume was quantified by Spectralis-Heidelberg software using SD-OCT images.

[3] abbreviates: 100 ng single IVT, prevention mode.
Where [4] appears, read: 1 μg single IVT, prevention mode.
The mark [5] stands for this setting: 5 μg single IVT, prevention mode.

On to “Eylea: Eylea (anti-VEGF), positive control; clinical compound [reference compound]”, for which the “Area of Leakage (mean) Week 1” value is given as 10273.37 in experiment [1] (setting [3]), 12502.09 in experiment [1] (setting [4]) and 11724.39 in experiment [1] (setting [5]). Moreover, the “Area of Leakage (mean) Week 4” value in experiment [1] (setting [3]) stood at 3433.52; in experiment [1] (setting [4]), 3005.85; in experiment [1] (setting [5]) it was 1834.08. For the same substance, the results for the “% Reduction (area of leakage)” value in experiment [1] (100 ng single IVT), in experiment [1] (1 μg single IVT) and in experiment [1] (5 μg single IVT) were 28.40%, 37.77% and 46.17%, respectively. Moreover, the choroidal angiogenesis entry in experiment [1] (B6J mice, single intravitreal injection at dose 100 ng, 1 g, and 5 μg, prevention mode) was “superior efficacy that is similar to PEP-Q and PEP-N”. Moreover, the “comparative efficacy between treatment groups” value in experiment [2] is given as “superior efficacy as compared to test peptides”.
